According to patent US20250326738A1, “MALT1 Modulators and Uses Thereof” (Rarefied Biosciences, Inc., priority 2022, published 2025):

Tests used:
full length MALT1 = target: T1, full length MALT1 (Homo sapiens, UniProt Q9UDY8); assay: MALT1 biochemical assay (fluorogenic peptide substrate cleavage); conditions: full length MALT1, 15 nM enzyme, 30 μM peptide substrate, 30 min pre-incubation, 60 min reaction; mean if tested more than once
T1 construct: measuring enzymatic activity of full length MALT1 at varying concentrations of compound
T1 sequence (Q9UDY8 1-824): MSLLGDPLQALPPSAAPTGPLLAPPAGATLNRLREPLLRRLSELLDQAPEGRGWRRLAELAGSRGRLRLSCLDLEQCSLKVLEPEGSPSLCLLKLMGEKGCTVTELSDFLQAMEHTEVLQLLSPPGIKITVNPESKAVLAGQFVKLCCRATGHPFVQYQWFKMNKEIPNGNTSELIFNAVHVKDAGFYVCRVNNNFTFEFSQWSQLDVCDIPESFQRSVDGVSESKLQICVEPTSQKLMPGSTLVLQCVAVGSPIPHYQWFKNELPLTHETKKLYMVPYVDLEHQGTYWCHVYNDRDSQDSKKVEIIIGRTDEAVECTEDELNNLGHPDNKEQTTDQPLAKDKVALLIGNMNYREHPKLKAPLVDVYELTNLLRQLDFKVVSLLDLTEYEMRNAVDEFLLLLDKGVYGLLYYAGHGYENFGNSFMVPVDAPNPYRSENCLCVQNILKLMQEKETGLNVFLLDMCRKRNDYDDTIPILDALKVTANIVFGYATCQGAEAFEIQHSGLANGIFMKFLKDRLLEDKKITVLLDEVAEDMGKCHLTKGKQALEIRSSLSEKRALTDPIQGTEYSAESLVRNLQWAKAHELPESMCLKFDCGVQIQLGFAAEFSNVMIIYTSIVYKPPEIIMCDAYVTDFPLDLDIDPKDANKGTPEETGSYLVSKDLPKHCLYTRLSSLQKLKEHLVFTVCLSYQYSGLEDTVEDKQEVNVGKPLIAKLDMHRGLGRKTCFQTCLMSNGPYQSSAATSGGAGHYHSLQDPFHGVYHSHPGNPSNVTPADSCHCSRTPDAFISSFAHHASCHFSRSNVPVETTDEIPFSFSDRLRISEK
Method: Inhibitor potency was evaluated by measuring enzymatic activity of full length MALT1 at varying concentrations of compound. The enzymatic assay consists of a single substrate reaction that monitors the release of a fluorescent dye upon cleavage of the peptide substrate. […] The assay buffer consists of 50 mM Hepes, pH 7.5, 0.8 M sodium citrate, 1 mM DTT, 0.004% tween-20, and 0.005% bovine serum albumin (BSA). […] The reaction was quenched after 60 minutes with the addition of iodoacetate at a final concentration of 10 mM. Total fluorescence was measured using an Envision (PerkinElmer) with fluorescence excitation at 485 nm and emission at 520 nm.
The reaction was initiated with the addition of 10 μL of peptide substrate. […] IC50 values were calculated by fitting the concentration-response curves to a four-parameter logistic equation in GraphPad Prism.
“N/A” indicates not tested.

Jurkat IL-2 = Jurkat IL-2 assay (IL-2 inhibition by ELISA after anti-CD3/28/2 stimulation); assay type: cell-based; conditions: Homo sapiens; Jurkat clone E6.1, IL-2 in supernatant, 30 min pre-incubation, anti-CD3/28/2 stimulation 24 hours; mean if tested more than once
Method: Inhibition was determined in a cell-based assay using Jurkat (ATCC, clone E6.1), an immortalized T-cell line, exposed to a dose response of compound and assessed for viability, and IL-2 inhibition by ELISA. Cells were cultured in RPMI/10% FBS (Invitrogen 11875093, Atlanta Biologicals S12450H), maintained below 3E6/mL and only used in assays while below passage 25. Compounds were stamped by ECHO onto 384w plates (PerkinElmer Culturplate, 6007680). The cells were plated in fresh media on top of compound and incubated for 30 minutes before stimulation with soluble anti-CD3/28/2 (Stemcell, 10970) for 24 hours. Supernatant was collected and assessed for IL-2 (MSD, 384w, L21SA-1). To assess viability of cells treated with compound, cells were lysed with CTG reagent (Promega, G7570), and measured by luminometer. […] IC50s calculated using 4-parameter fit in GraphPad Prism.
“N/A” indicates not tested. For a compound that was tested in more than one experiment, the result shown represents the mean value.

Row | IC50 (full length MALT1) [nM] | IC50 (Jurkat IL-2) [nM] | Structure (SMILES)
1 | 100 to 1000 | 100 to 1000 | CO[C@@H](C)c1c(Nc2ccc([C@H](N(C)C(=O)C3CN(C(C)=O)C3)C(F)(F)F)cc2)cnn1-c1ccccc1 [Compound 1.38]
2 | < 100 | < 100 | CC(=O)N1CC(C(=O)N(C)[C@@H](c2ccc(Nc3cnn(-c4cccnc4)c3C(F)(F)F)cc2)C(F)(F)F)C1 [Compound 1.36]
3 | 100 to 1000 | > 1000 | CO[C@@H](C)c1c(Nc2ccc([C@H](N(C)C(=O)[C@H]3CC[C@H](C(=O)O)CC3)C(F)(F)F)cc2)cnn1-c1ccncc1 [Compound 2.7]
4 | < 100 | < 100 | CN(C(=O)[C@H]1CC[C@H](C(=O)O)CC1)[C@@H](c1ccc(Nc2cnn(-c3cccnn3)c2C(F)(F)F)cc1)C(F)(F)F [Compound 2.9]
5 | 100 to 1000 | < 100 | CN(C(=O)C1CCS(=O)(=O)CC1)[C@@H](c1ccc(Nc2cnn(-c3cnccn3)c2C(F)(F)F)cc1)C(F)(F)F [Compound 1.19]
6 | 100 to 1000 | < 100 | CC(=O)N1CCC(C(=O)N(C)[C@@H](c2ccc(Nc3cnn(-c4ccccc4)c3C(F)(F)F)cc2)C(F)(F)F)CC1 [Compound 1.25]
7 | > 1000 | > 1000 | CN(C(=O)C1CCS(=O)(=O)CC1)[C@@H](c1ccc(Nc2cnn(CC(C)(C)O)c2C(F)(F)F)cc1)C(F)(F)F [Compound 1.10]
8 | < 100 | 100 to 1000 | CN(C(=O)C1CCS(=O)(=O)CC1)[C@@H](c1ccc(Nc2cnn(-c3ccnnc3)c2C(F)(F)F)cc1)C(F)(F)F [Compound 1.22]
9 | 100 to 1000 | 100 to 1000 | CO[C@@H](C)c1c(Nc2ccc([C@H](N(C)C(=O)C3CCN(C(C)=O)CC3)C(F)(F)F)cc2)cnn1-c1ccccc1 [Compound 1.31]
10 | < 100 | < 100 | CN(C(=O)C1CCS(=O)(=O)CC1)[C@@H](c1ccc(Nc2cnn(-c3ccccn3)c2C(F)(F)F)cc1)C(F)(F)F [Compound 1.15]
11 | 100 to 1000 | 100 to 1000 | CO[C@@H](C)c1c(Nc2ccc([C@H](N(C)C(=O)[C@H]3CC[C@H](C(=O)O)CC3)C(F)(F)F)cc2)cnn1-c1ccccc1 [Compound 2.6]
12 | 100 to 1000 | 100 to 1000 | CN(C(=O)C1CCS(=O)(=O)CC1)[C@@H](c1ccc(Nc2cnn(-c3cccc4ncccc34)c2C(F)(F)F)cc1)C(F)(F)F [Compound 1.2]
13 | > 1000 | > 1000 | CN(C(=O)C1CCS(=O)(=O)CC1)[C@@H](c1ccc(Nc2cnn(C)c2C(F)(F)F)cc1)C(F)(F)F [Compound 1.1, (S)—N-methyl-N-(2,2,2-trifluoro-1-(4-((1-methyl-5-(trifluoromethyl)-1H-pyrazol-4-yl)amino)phenyl)ethyl)tetrahydro-2H-thiopyran-4-carboxamide 1,1-dioxide]
14 | < 100 | 100 to 1000 | CO[C@@H](C)c1c(Nc2ccc([C@H](N(C)C(=O)C3CCN(C(C)=O)CC3)C(F)(F)F)cc2)cnn1-c1ccccn1 [Compound 1.32]
15 | > 1000 | 100 to 1000 | Cc1ccccc1-n1ncc(Nc2ccc([C@H](N(C)C(=O)C3CCS(=O)(=O)CC3)C(F)(F)F)cc2)c1C(F)(F)F [Compound 1.3]
16 | < 100 | 100 to 1000 | CO[C@@H](C)c1c(Nc2ccc([C@H](N(C)C(=O)[C@H]3CC[C@H](C(=O)O)CC3)C(F)(F)F)cc2)cnn1-c1ccccn1 [Compound 2.5]
17 | 100 to 1000 | 100 to 1000 | CC(C)c1c(Nc2ccc([C@H](N(C)C(=O)C3CCS(=O)(=O)CC3)C(F)(F)F)cc2)cnn1-c1ccccc1 [Compound 1.8]
18 | 100 to 1000 | 100 to 1000 | COC(C)c1c(Nc2ccc([C@H](N(C)C(=O)C3CCS(=O)(=O)CC3)C(F)(F)F)cc2)cnn1-c1cccnc1 (some centres unmarked) [Compound 1.23]

Row | IC50 (full length MALT1) [nM] | IC50 (Jurkat IL-2) [nM] | Structure (SMILES)
19 | 100 to 1000 | 100 to 1000 | CO[C@@H](C)c1c(Nc2ccc([C@H](N(C)C(=O)[C@H]3CC[C@H](C(=O)O)CC3)C(F)(F)F)cc2)cnn1-c1cccnc1 [Compound 2.8]
20 | > 1000 | > 1000 | CN(C(=O)C1CCS(=O)(=O)CC1)[C@@H](c1ccc(Nc2cnn(C)c2-c2ccccc2)cc1)C(F)(F)F [Compound 1.4]
21 | 100 to 1000 | < 100 | CN(C(=O)[C@H]1CC[C@H](C(=O)O)CC1)[C@@H](c1ccc(Nc2cnn(-c3cccnc3)c2C(F)(F)F)cc1)C(F)(F)F [Compound 2.3]
22 | < 100 | < 100 | CN(C(=O)C1CCS(=O)(=O)CC1)[C@@H](c1ccc(Nc2cnn(-c3cccc(C#N)c3)c2C(F)(F)F)cc1)C(F)(F)F [Compound 1.17]
23 | < 100 | < 100 | CN(C(=O)C1CCS(=O)(=O)CC1)[C@@H](c1ccc(Nc2cnn(-c3cccnc3)c2C(F)(F)F)cc1)C(F)(F)F [Compound 1.13]
24 | 100 to 1000 | 100 to 1000 | CN(C(=O)C1CCS(=O)(=O)CC1)[C@@H](c1ccc(Nc2cnn(-c3ccccc3)c2C(F)(F)F)cc1)C(F)(F)F [Compound 1.6]
25 | 100 to 1000 | 100 to 1000 | CC(C)n1ncc(Nc2ccc([C@H](N(C)C(=O)C3CCS(=O)(=O)CC3)C(F)(F)F)cc2)c1C(F)(F)F [Compound 1.9]
26 | 100 to 1000 | 100 to 1000 | CC(=O)N1CCC(C(=O)N(C)[C@@H](c2ccc(Nc3cnn(-c4ccccc4)c3C(C)C)cc2)C(F)(F)F)CC1 [Compound 1.26]
27 | < 100 | 100 to 1000 | CN(C(=O)[C@H]1C[C@@H](C(=O)O)C1)[C@@H](c1ccc(Nc2cnn(-c3ccccc3)c2C(F)(F)F)cc1)C(F)(F)F [Compound 2.14]
28 | 100 to 1000 | 100 to 1000 | CN(C(=O)C1CCS(=O)(=O)CC1)[C@@H](c1ccc(Nc2cnn(C3CC3)c2C(F)(F)F)cc1)C(F)(F)F [Compound 1.7]
29 | > 1000 | > 1000 | COCC(C)n1ncc(Nc2ccc([C@H](N(C)C(=O)C3CCS(=O)(=O)CC3)C(F)(F)F)cc2)c1C(F)(F)F (some centres unmarked) [Compound 1.11]
30 | 100 to 1000 | < 100 | CC(=O)N1CC(C(=O)N(C)[C@@H](c2ccc(Nc3cnn(-c4cccc(C#N)c4)c3C(F)(F)F)cc2)C(F)(F)F)C1 [Compound 1.35]
31 | < 100 | < 100 | CN(C(=O)[C@H]1CC[C@H](C(=O)O)CC1)[C@@H](c1ccc(Nc2cnn(-c3ccccn3)c2C(F)(F)F)cc1)C(F)(F)F [Compound 2.4]
32 | < 100 | 100 to 1000 | CN(C(=O)[C@H]1C[C@@H](C(=O)O)C1)[C@@H](c1ccc(Nc2cnn(-c3ccccn3)c2C(F)(F)F)cc1)C(F)(F)F [Compound 2.12, (1s,3s)-3-{methyl[(1S)-2,2,2-trifluoro-1-(4-{[1-(pyridin-2-yl)-5-(trifluoromethyl)-1H-pyrazol-4-yl]amino}phenyl)ethyl]carbamoyl}cyclobutane-1-carboxylic Acid Amine]
33 | < 100 | 100 to 1000 | CC(=O)N1CC(C(=O)N(C)[C@@H](c2ccc(Nc3cnn(-c4ccccn4)c3C3CC3)cc2)C(F)(F)F)C1 [Compound 1.40]
34 | < 100 | 100 to 1000 | CO[C@@H](C)c1c(Nc2ccc([C@H](N(C)C(=O)[C@H]3CC[C@H](C(=O)O)CC3)C(F)(F)F)cc2)cnn1-c1cccc(C#N)c1 [Compound 2.10]
35 | 100 to 1000 | 100 to 1000 | CO[C@@H](C)c1c(Nc2ccc([C@H](N(C)C(=O)C3CCN(C(C)=O)CC3)C(F)(F)F)cc2)cnn1-c1ccncc1 [Compound 1.33]
36 |  | 100 to 1000 | CC(=O)N1CC(C(=O)N(C)[C@@H](c2ccc(Nc3cnn(-c4cccnc4)c3C3CC3)cc2)C(F)(F)F)C1 [Compound 1.41]
